Data on 103 compounds can be found in ChEMBL document CHEMBL3507680, “University of Dundee, Gates Library screen for HepG2 cell viability”.

Each structure is given as a SMILES string.

The data set can be described thus: Human HepG2 cell viability assay in 384 well format. In kind it is toxicity, cell-based. Further details: dose 125 nL, time 70.5 hour; concentration not given beside the values. The note with it: HepG2 cells, read-out: Inhibition.
Turning to `COC(=O)c1ccc(F)c(S(=O)(=O)Nc2ccc(C(N)=O)cc2)c1`, the cytotoxicity at 70.5 h is -16.7%.

Regarding `COC(=O)c1cccc(S(=O)(=O)Nc2ccc(Cl)c(C(N)=O)c2)c1`, the cytotoxicity at 70.5 h is -12.3%. For `O=C(NCCOc1ccc(F)cc1)C1CCCN(C(=O)C2CC2)C1` (stereo not drawn), the cytotoxicity at 70.5 h is -17.7%.

Regarding `CCC(CC)C(=O)NS(=O)(=O)CCc1ccccc1`, the cytotoxicity at 70.5 h is -23.7%. For `CC(C)c1nnc(CN2CCCC2C(=O)OCc2ccccc2)o1` (stereo not drawn) the value was -10.4%; for `NC(=O)N1CCCC(C(=O)NCCOc2ccc(F)c(F)c2)C1` (stereo not drawn), -12.7%. In the case of `Cc1ccoc1CNC(C)c1nnc2n1CCCC2` (stereo not drawn), the cytotoxicity at 70.5 h was 13%.

For the compound `Cc1ccc(CNC(C)c2nnc3n2CCCC3)o1` (stereo not drawn), the cytotoxicity at 70.5 h was -8.48%. For `COCCS(=O)(=O)NC(=O)c1nnn(-c2ccc(F)cc2)c1C1CC1` the value was 2%; for `CS(=O)(=O)c1ccc(NC(=O)CSc2ccc3c(c2)CCC3)cc1`, 1.38%. Regarding `CCN1CCCC(CNC(=O)CCc2ccc(OC)c(F)c2)C1` (stereo not drawn), the cytotoxicity at 70.5 h is -14.6%. Take `CNC(=O)C(NC(=O)c1c(C)noc1C)c1ccc(F)c(F)c1` (stereo not drawn): the cytotoxicity at 70.5 h is 2.39%. Regarding `CCOc1c(OC)cc(/C=C/c2ncc(C(=O)NC)s2)cc1OC`, the cytotoxicity at 70.5 h was -7.3%. The same measure for `CN(C)C(=O)C1CCN(c2cncc(-n3cccn3)n2)CC1`: 10.2%; for `CNC(=O)c1cnc(/C=C/c2cc(OC)c3c(c2)OCCO3)s1`: -6.59%; for `CN(CC(=O)Nc1ccncc1)CC1CCCN1c1cccnn1` (stereo not drawn): -11.4%. Turning to `CNS(=O)(=O)c1cccc(C(C)NCc2ccncc2)c1` (stereo not drawn), the cytotoxicity at 70.5 h was -2.51%. In the case of `COCc1nc2cc(NCc3sc(C)nc3C)ccc2o1`, the cytotoxicity at 70.5 h is -4.53%. In the case of `CNC(=O)C(NC(C)=O)c1ccc(F)c(F)c1` (stereo not drawn), the cytotoxicity at 70.5 h is -1.65%. `O=C(C1SCCc2sccc21)N1CCCCC1` (stereo not drawn): the cytotoxicity at 70.5 h was -6.95%. For `O=C(C1SCCc2sccc21)N1CC(O)C1` (stereo not drawn) the value was -5.69%; for `O=C(NCC1(C(=O)O)CCC1)c1nnn(-c2ccc(F)cc2)c1C1CC1`, 11.7%.

As for `CNS(=O)(=O)c1cccc(C(C)NCc2ccsc2)c1` (stereo not drawn), the cytotoxicity at 70.5 h was -0.542%.

Consider `Cc1ccc(C(CNCc2nccn2C)N2CCOCC2)s1` (stereo not drawn), for which the cytotoxicity at 70.5 h is -2.09%. Consider `CCn1ccnc1CNCC(c1ccc(C)s1)N1CCOCC1` (stereo not drawn), for which the cytotoxicity at 70.5 h was -7.92%. The same measure for `CNS(=O)(=O)c1cccc(C(C)NCc2ccc(F)cc2F)c1` (stereo not drawn): -9.82%; for `CN(C(=O)CN1CCCC1Cc1ccccc1)c1ccccc1` (stereo not drawn): -7.08%.

As to `CCCC(C)C(=O)Nc1ccc(OC)nc1N1CCN(C(C)=O)CC1` (stereo not drawn), the cytotoxicity at 70.5 h is -6.89%. Turning to `OC(CN1CC(n2cccn2)C1)c1ccc2c(c1)OCCO2` (stereo not drawn), the cytotoxicity at 70.5 h was -3.2%. Turning to `Cc1ccoc1CNCc1nnc2n1CCCC2C(F)(F)F` (stereo not drawn), the cytotoxicity at 70.5 h was -3.7%.

`O=C(CCn1cccn1)NCC(c1cccs1)N1CCCC1` (stereo not drawn): the cytotoxicity at 70.5 h was -5.3%. For `CC1CCN(C(CNC(=O)Cn2cccn2)c2cccs2)CC1` (stereo not drawn), the cytotoxicity at 70.5 h was -7.96%. With `NS(=O)(=O)CCNC(=O)c1cc(Br)c2c(c1)OCCO2`, the cytotoxicity at 70.5 h is -10.7%. For the compound `NC(=O)CCCNC(=O)c1cc(Br)c2c(c1)OCCO2`, the cytotoxicity at 70.5 h is -10.4%. For the compound `CC(CC(=O)Nc1ncn(CC(=O)NCc2ccccc2)n1)C1CC1` (stereo not drawn), the cytotoxicity at 70.5 h was -14.7%.

As for `COC(=O)CCNC(=O)c1cc(Br)c2c(c1)OCCO2`, the cytotoxicity at 70.5 h was -10.5%. The same measure for `Cc1cnn(Cc2cc(F)ccc2F)c1NC(=O)CNC(=O)C1CC1`: 1.15%; for `CCN(CC)C(=O)CCCNC(=O)Cc1nc(-c2ccco2)oc1C`: -12.3%; for `CCOCCCNC(=O)c1cc(Br)c2c(c1)OCCO2`: -8.79%. `CCC(=O)NCC(=O)Nc1c(C)cnn1Cc1cc(F)ccc1F`: the cytotoxicity at 70.5 h was -5.16%.

As for `CC(=O)Cn1cc(C#N)c(=O)c2cc(Br)ccc21`, the cytotoxicity at 70.5 h is -13.6%. Consider `N#CCCCn1nnc(C2(NC(=O)c3ccccc3)CCCC2)n1`, for which the cytotoxicity at 70.5 h is -1.12%. For `CCc1nc2n(n1)CCCC2Nc1nc(C(C)C)ns1` (stereo not drawn) the value was -9.57%; for `COCc1nc2n(n1)CCCC2Nc1nc(C)ns1` (stereo not drawn), 24.4%. Turning to `CC(C)CS(=O)(=O)CC(=O)N1CCCC1c1noc(C2CC2)n1` (stereo not drawn), the cytotoxicity at 70.5 h is -8.35%. The same measure for `COc1cccc(CN(C)C(=O)CN2CCN(c3nccs3)CC2)c1`: -9.6%; for `O=C(CN1CCOC(c2ccc(Cl)s2)C1)NCc1ccco1` (stereo not drawn): 17%. For the compound `COc1ccc(C(O)CN2CC(n3cc(C)cn3)C2)cc1` (stereo not drawn), the cytotoxicity at 70.5 h is -8.25%. Turning to `Cc1cc(C2CN(CC(=O)NCc3ccco3)CCO2)ccc1F` (stereo not drawn), the cytotoxicity at 70.5 h was -11.9%. Regarding `O=c1oc(-c2cccs2)nn1CC(O)c1ccc2c(c1)CCC2` (stereo not drawn), the cytotoxicity at 70.5 h stood at 14.5%. On to `CCc1sc(C(=O)NC2CC2)cc1C`, for which the cytotoxicity at 70.5 h came out at 8.53%. `CCCS(=O)(=O)N1CCC(NC(=O)c2cc(CC)c(C)s2)CC1`: the cytotoxicity at 70.5 h was -0.636%. As to `CC(=O)NCCC(=O)NCc1cc(Br)ccc1OC(F)F`, the cytotoxicity at 70.5 h is -7.14%.

Turning to `NC(=O)C1CCCN1Cc1cccc(NC(=O)c2ccc(Cl)cc2F)c1` (stereo not drawn), the cytotoxicity at 70.5 h is -20.5%. For `COC(=O)CCSc1nncn1-c1ccc(OC)nc1` the value was 4.09%.

Consider `CCc1nc(CCNC(=O)Nc2cccc(C(=O)NC)c2C)cs1`, for which the cytotoxicity at 70.5 h amounted to 9.84%.

As for `Cc1cccc(NC(=O)[C@@H]2CCCN2Cc2ccccc2C#N)n1`, the cytotoxicity at 70.5 h was -10.3%.

Consider `CSCC(=O)NCc1cc(Br)ccc1OC(F)F`, for which the cytotoxicity at 70.5 h is -5.17%.

On to `CC(C)C(=O)NC1CCN(c2cccc(OC(F)(F)F)c2)C1=O` (stereo not drawn), for which the cytotoxicity at 70.5 h was 8.86%.

For `Cc1cc(S(=O)(=O)N2CCCc3cc(Br)ccc32)sc1C(=O)O`, the cytotoxicity at 70.5 h is -6.91%. For `CCC(CC)NC(=O)CN1CCN(C(=O)N(C)C)CC1` the value was -0.0942%; for `CC(NC(=O)C1CCN(S(N)(=O)=O)CC1)c1cccc(OC(F)F)c1` (stereo not drawn), -1.7%.

As for `Cc1ccc(C(=O)N(C)Cc2c(C)noc2C)c(=O)[nH]1`, the cytotoxicity at 70.5 h is -0.278%. For `O=C(Nc1ccc(F)cc1)C1CCc2ccccc2N1` (stereo not drawn), the cytotoxicity at 70.5 h is -1.61%. Turning to `CC(=O)N(C)CC(=O)NCC1(c2cccc(C)c2)CCCC1`, the cytotoxicity at 70.5 h is 1.29%. In the case of `CCOCCNC(=O)c1ccn(S(=O)(=O)c2ccc(C)cc2)c1`, the cytotoxicity at 70.5 h was -2.02%. Turning to `Cc1nc2n(n1)CC(NCC(=O)NCCC1=CCCCC1)CC2` (stereo not drawn), the cytotoxicity at 70.5 h came out at 0.305%.

Regarding `Cc1ccc(S(=O)(=O)n2ccc(C(=O)NCC(F)(F)F)c2)cc1`, the cytotoxicity at 70.5 h amounted to 1.3%. Take `CCc1ncc2c(n1)CN(C(C)C(=O)N1CCOCC1)CC2` (stereo not drawn): the cytotoxicity at 70.5 h is 17%. On to `CC1(C(=O)NCCN2CCCCC2)CCCN1C(=O)c1ccccc1` (stereo not drawn), for which the cytotoxicity at 70.5 h was -3.21%. For `Cn1c(CCNc2nccnc2C#N)nc2cc(Cl)ccc21`, the cytotoxicity at 70.5 h is -0.473%. With `Cn1c(CCCNc2nccnc2C#N)nc2ccccc21`, the cytotoxicity at 70.5 h came out at 1.96%.

With `CCC(CNC(=O)c1nc(=O)[nH][nH]1)Oc1ccccc1C(F)(F)F` (stereo not drawn), the cytotoxicity at 70.5 h amounted to 1.22%.

For the compound `Cc1nc(NC(=O)NCc2nc3cccc(C)c3n2C)oc1C`, the cytotoxicity at 70.5 h was determined as 13.5%.

Regarding `CSCCN(C)C(=O)C1(c2ccc(F)cc2F)CCOCC1`, the cytotoxicity at 70.5 h is -0.975%. For `CCc1nnc(C(C)N(C)Cc2c(C)nn(-c3ccccc3)c2C)o1` (stereo not drawn) the value was -1.32%; for `CC(NCC1CCN(CCO)CC1)c1cccc(Cl)c1` (stereo not drawn), -2.07%. Consider `CC(NCC1CCN(CCO)CC1)c1ccc(Cl)cc1` (stereo not drawn), for which the cytotoxicity at 70.5 h was found to be 10.5%. Turning to `CN(Cc1ccccc1NCc1cccnc1)C(=O)c1cccs1`, the cytotoxicity at 70.5 h was -2.02%.

For the compound `COc1ccc(C)cc1CN(Cc1ncc(C)o1)C1CCN(C)C1` (stereo not drawn), the cytotoxicity at 70.5 h came out at 14.5%.

`CCOc1nnc(CN(Cc2ccccc2)CC(O)c2ccco2)s1` (stereo not drawn): the cytotoxicity at 70.5 h is -10.6%.

With `CN(Cc1ccc(Br)s1)Cn1nc(-c2ccc(F)cc2)oc1=O`, the cytotoxicity at 70.5 h was -4.35%. Consider `O=C1NCCCCC1NS(=O)(=O)N1CCCCCC1` (stereo not drawn), for which the cytotoxicity at 70.5 h was -13.8%. Consider `CC1CCN(S(=O)(=O)NC2CCCCNC2=O)CC1` (stereo not drawn), for which the cytotoxicity at 70.5 h is -5.25%. Turning to `CN(C(=O)c1ccc(C#N)cc1)C1CCN(c2ccccn2)CC1`, the cytotoxicity at 70.5 h amounted to 12.7%. As to `CN(C(=O)Nc1cccc(C#N)c1)C1CCN(c2ccccn2)CC1`, the cytotoxicity at 70.5 h was -8.89%. Consider `Cc1occc1C(=O)NC1CCN(C(=O)Nc2cccnc2)CC1`, for which the cytotoxicity at 70.5 h was -5.69%. Turning to `Cc1ncc(CN(C)c2nc3c(cnn3C(C)(C)C)c(=O)[nH]2)s1`, the cytotoxicity at 70.5 h came out at 11.8%. Take `Cn1nnc2cc(C(=O)NS(=O)(=O)Cc3ccc(F)cc3)ccc21`: the cytotoxicity at 70.5 h is -12.6%. Consider `Cc1cc(C(=O)N2CCC(NC(=O)c3cccnc3)CC2)c(C)o1`, for which the cytotoxicity at 70.5 h was -9.02%. In the case of `CC1(C)CCC(CC(=O)O)c2ccccc21` (stereo not drawn), the cytotoxicity at 70.5 h is -3.28%. As for `CCC(Nc1ccc(Oc2ccc(C#N)cc2OC)cc1)C(N)=O` (stereo not drawn), the cytotoxicity at 70.5 h worked out at 5.26%. For `Cc1nc(-c2ccsc2)ccc1C(=O)N1CCn2c(C)nnc2C1` the value was 11.2%; for `Cc1nc(C(NC(=O)C2CCCC2)c2ccccc2F)no1` (stereo not drawn), -9.04%; for `O=C(Nc1ccc(F)cc1)NC1(CCO)CCOCC1`, -7.29%.

Take `OC[C@@H](O)CN(CCC(F)(F)F)c1ncc(Br)cn1`: the cytotoxicity at 70.5 h was determined as 14.1%. The same measure for `COc1cc(S(=O)(=O)Nc2cn[nH]c2)ccc1Br`: -12.7%; for `O=S(=O)(Nc1cn[nH]c1)c1ccc(Br)c(F)c1`: -2.34%. For `CCc1noc(CC)c1CNC(=O)Nc1ccc2[nH]nnc2c1` the value was -4.16%. The same measure for `COc1nc(C)ccc1CNC(=O)NC(C)(C)c1ncc(C)s1`: -5.61%; for `CN(CCOc1cccc(Cl)c1)Cc1nnc(C(C)(C)C)o1`: -2.27%; for `COc1ccc(CNC(C)c2ccccc2Cl)c(OC)c1OC` (stereo not drawn): 18.3%. In the case of `Cc1cccc(NC(=O)C2CCc3ccccc3N2)c1` (stereo not drawn), the cytotoxicity at 70.5 h is -0.623%.
